From PubChem BioAssay (NCI)
Several values for one entry are separate records, joined by “and”; a condition that tells them apart may be missing. Equal entries are not always repeated.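 Tested at 5 concentrations; 48 h exposure; 96-well plates; endpoints linearly interpolated, else capped at highest concentration. At the GI50, growth is halved. At the TGI there is no net growth.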

How the values were obtained:
Assay in all cases: growth of human tumour cells (NCI), 48 h
IGROV1 ovarian = test system: IGROV1 ovarian
786-0 renal = test system: 786-0 renal
CCRF-CEM leukemia = test system: CCRF-CEM leukemia
DU-145 prostate = test system: DU-145 prostate
HOP-62 NSCLC = test system: HOP-62 NSCLC
HCC-2998 colon = test system: HCC-2998 colon
NCI-H460 lung = test system: NCI-H460 lung
HCT-116 colon = test system: HCT-116 colon
MCF7 breast = test system: MCF7 breast
OVCAR-3 ovarian = test system: OVCAR-3 ovarian

SMILES | TGI (IGROV1 ovarian) | TGI (786-0 renal) | TGI (CCRF-CEM leukemia) | TGI (DU-145 prostate) | TGI (HOP-62 NSCLC) | TGI (HCC-2998 colon) | TGI (NCI-H460 lung) | TGI (HCT-116 colon) | TGI (MCF7 breast) | TGI (OVCAR-3 ovarian) | GI50 (IGROV1 ovarian) | GI50 (786-0 renal) | GI50 (CCRF-CEM leukemia) | GI50 (DU-145 prostate) | GI50 (HOP-62 NSCLC) | GI50 (HCC-2998 colon) | GI50 (NCI-H460 lung) | GI50 (HCT-116 colon) | GI50 (MCF7 breast) | GI50 (OVCAR-3 ovarian)
O=[N+]([O-])c1cc(C(F)(F)F)cc2n[se]nc12 | 14.6 µM | 4.85 µM | 10.8 µM | 6.66 µM | 29.8 µM | 10.2 µM | 26.6 µM | 3.46 µM | 4.07 µM | 3.33 µM |  |  |  |  |  |  |  |  |  | 
O=C(CS(=O)c1nc2ccccc2nc1-c1ccccc1)Nc1ccc(Cl)cc1 (stereo unspecified) | 99.5 µM | 71.7 µM | 56.8 µM | > 100 µM | 71.8 µM | 84.9 µM | 47.7 µM | 33.1 µM | > 100 µM | 51.2 µM | 31.2 µM | 26.5 µM | 23.4 µM | 25.7 µM | 23.2 µM | 28.6 µM | 18.6 µM | 16 µM | 38.7 µM | 21.5 µM
COc1ccccc1-c1ccc2c(N)c(C(=O)c3ccc4c(c3)OCO4)sc2n1 | 25.5 µM | 11.3 µM | > 100 µM | 42.6 µM | 14.7 µM | 29.1 µM | 16.7 µM | 15 µM | 98.6 µM | 22 µM | 7.93 µM | 2.78 µM | 5.27 µM | 15 µM | 3.52 µM | 12 µM | 4.04 µM | 3.68 µM | 4.82 µM | 5.18 µM
Cc1cnc(-c2ccc(-c3ccc(NC(=O)Nc4cccc(C(F)(F)F)c4)cc3F)c3c2C(=O)NC3)[nH]1 | 32.2 µM | > 51.8 µM | 18.7 µM | 35.6 µM | > 50 µM | > 59.2 µM | 26.8 µM | 23.8 µM | 25.3 µM | 36.7 µM | 1.97 µM | 16.8 µM | 1.31 µM | 11.5 µM | 3.55 µM | 28.2 µM | 0.304 µM | 0.548 µM | 2.04 µM | 14.4 µM
CCN(CC)CCOc1ccc(NC(=O)C(C(C)C)N2C(=O)/C(=C/c3ccc(Br)cc3)SC2=S)cc1 (stereo unspecified) | 8.03 µM | 3.22 µM | 9.52 µM | 14.7 µM | 7.11 µM | 5.13 µM | 3.51 µM | 3.47 µM | 4.34 µM | 4.08 µM | 2.61 µM | 1.76 µM | 2.82 µM | 4.44 µM | 2.36 µM | 2.21 µM | 1.85 µM | 1.86 µM | 1.99 µM | 1.95 µM
N#Cc1ccc(O)c(C2=NCC(c3ccc(-c4ccccc4)cc3)O2)c1 (stereo unspecified) | 14.3 µM | 11.9 µM | > 100 µM | 16 µM | 10.9 µM | 21.6 µM | 8.75 µM | 15.2 µM | 11.8 µM | 11.7 µM | 0.478 µM | 0.626 µM | 0.264 µM | 0.732 µM | 0.41 µM | 0.628 µM | 0.279 µM | 0.462 µM | 0.343 µM | 0.368 µM
Cl.[O-]c1cccc2cccnc12.[O-]c1cccc2cccnc12.[O-]c1cccc2cccnc12.[O-]c1cccc2cccnc12.[Ti+4] | 2.92 µM | 4.41 µM |  | > 100 µM | 59.6 µM | 4.5 µM | 10.2 µM |  | > 100 µM | 0.621 µM |  | 0.567 µM | 0.291 µM | 10.5 µM | 4.7 µM | 2.1 µM | 1.28 µM | 0.355 µM | 0.955 µM | 0.121 µM
Oc1ccccc1/C=N\Nc1ccccc1 | > 100 µM | 16.6 µM | > 100 µM | > 100 µM | > 100 µM | 15.5 µM | > 100 µM | > 100 µM | > 100 µM | > 100 µM | 21.7 µM | 2.7 µM | 0.533 µM | 15.8 µM | 21.9 µM | 3.45 µM | 3.36 µM | 7.22 µM | 4.06 µM | 10.4 µM
N#Cc1ccc(C(=O)c2cnn(-c3ccc(F)cc3)c2N)cc1 | > 25 µM | > 25 µM | > 25 µM | > 25 µM | > 25 µM | > 25 µM | > 25 µM | > 25 µM | > 25 µM | > 25 µM | > 25 µM | > 25 µM | > 25 µM | > 25 µM | > 25 µM | > 25 µM | > 25 µM | > 25 µM | > 25 µM | > 25 µM
CC(=O)OCC1OC([S-])C(OC(C)=O)C(OC(C)=O)C1OC(C)=O.[Au+].c1ccc(CN2[CH-]N(Cc3ccccc3)C(c3ccccc3)=C2c2ccccc2)cc1 | 3.91 µM and 1.44 µM | 3.63 µM and 1.18 µM | 13.8 µM and 9.52 µM | 8.09 µM and 3.59 µM | 19.4 µM and 4.59 µM | 3.34 µM and 1.9 µM | 15.5 µM and 2.42 µM | 9.95 µM and 2.52 µM | 3.52 µM and 2.04 µM | 3.25 µM and 1.28 µM | 1.83 µM and 0.514 µM | 1.84 µM and 0.384 µM | 2.65 µM and 0.283 µM | 2.86 µM and 0.509 µM | 4.56 µM and 1.11 µM | 1.64 µM and 0.625 µM | 3.71 µM and 0.732 µM | 3.08 µM and 0.554 µM | 1.65 µM and 0.827 µM | 1.8 µM and 0.444 µM
COc1ccc(-c2nsc3c2NC(=O)CC3c2cccc(F)c2)cc1 (stereo unspecified) | > 100 µM | > 100 µM | > 100 µM | > 100 µM | > 100 µM | > 100 µM | > 100 µM | > 100 µM | > 100 µM | 12.3 µM | 13.8 µM | 8.22 µM | 4.89 µM | 5.29 µM | 8.79 µM | 7.18 µM | 3.63 µM | 4.14 µM | 3.89 µM | 3.32 µM
Cc1cc2oc(=O)cc(OC/C=C3/CCC(=O)O3)c2cc1C | 14.6 µM | 10.4 µM | 7.25 µM | 12.4 µM | 26.4 µM | 31 µM | 32.5 µM |  | 12.6 µM | 11.4 µM | 3.33 µM | 2.57 µM | 2.33 µM | 2.67 µM | 12.1 µM | 15.4 µM | 6.6 µM | 2.72 µM | 2.25 µM | 2.93 µM
